Where two headings read alike, the source gives them in different places. Starred links: 1 amine or outer side, 2 acyl side, 3 side chain; linkers in the order of their positions; H or OH if unused. Positions of bridges follow the written chain, without caps; N, C: chain ends. Non-standard residues stand in square brackets, D forms with d. Residues, ends and D or L forms follow the SMILES beside them. ξ: configuration not given here. *: point of attachment. NMeF = CN[C@@H](Cc1ccccc1)C(=O)O; NMeI = CC[C@H](C)[C@H](NC)C(=O)O; NMeβAla = CN(CCC(=O)[*:2])[*:1]; NMeL = CN[C@@H](CC(C)C)C(=O)O; ξNMeF = CNC(Cc1ccccc1)C(=O)O; NMeV = CN[C@H](C(=O)O)C(C)C; NMeA = CN[C@@H](C)C(=O)O; Piperidide = C1CCN(*)CC1; dNMeA = CN[C@H](C)C(=O)O; Sar = CNCC(=O)O

15 molecules from patent US9409952B2, “Peptide-compound cyclization method” (Chugai Seiyaku Kabushiki Kaisha, priority 2011, dated 2016) can be followed below.

A short description of data set [1]: PAMPA (parallel artificial membrane permeability assay). Type of data set: in vitro ADME. To be noted: PAMPA. The essentials:
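Artificial membrane was 10% (w/v) egg lecithin plus 0.5% (w/v) cholesterol in dodecane on a PVDF filter. A 10 mM DMSO stock was added at 0.5% (v/v) to donor buffer (50 mM MOPSO, pH 6.5, 5.0% glycocholic acid). After 18 h at 37 °C, LC/MS or LC/UV gave donor and acceptor levels for Pe.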

The nature of data set [2]: Metabolic stability in human hepatic microsome. Type of data set: in vitro ADME. To be noted: microsomes.
Setting [3] is: membrane permeation rate (Pe), 50 mM MOPSO buffer pH 6.5 with 5.0% glycocholic acid, 37° C., 18 hours, read-out: iPAMPA Pe.
[4] abbreviates: pH 7.4, human hepatic microsome, NADPH(+), read-out: CL NADPH(+).

`CC[C@H](C)[C@H]1C(=O)N[C@@H](C)C(=O)N(C)[C@@H](CC(C)C)C(=O)N(C)[C@@H](Cc2ccccc2)C(=O)N[C@@H]([C@@H](C)O)C(=O)N(C)[C@@H](C)C(=O)N(C)[C@@H](CC(C)C)C(=O)N(C)[C@@H](Cc2ccccc2)C(=O)N[C@H](C(=O)N(C)[C@@H](Cc2ccccc2)C(=O)N[C@@H](C)C(=O)N2CCCCC2)CC(=O)N(C)CC(=O)N(C)[C@@H](CC(C)C)C(=O)N1C` [DP-284] ([Sar][NMeL][NMeI]A[NMeL][NMeF]T[NMeA][NMeL][NMeF]D[NMeF]A-Piperidide; lactam N-11): the Papp at 18 hours, 50 µM in data set [1] (pH 6.5) is 0.21 ×10⁻⁶ cm/s. Besides, the microsomal CLint at 1 uM in data set [2] (human, pH 7.4, CL NADPH(+)) turned out to be 11 µL/min/mg.
Taken in the same sequence, the figures for `CC(C)C[C@@H]1NC(=O)[C@H](C)N(C)C(=O)CNC(=O)[C@H](C(C)C)N(C)C(=O)[C@H](Cc2ccccc2)NC(=O)[C@H]([C@@H](C)O)NC(=O)[C@H](CC(C)C)N(C)C(=O)CN(C)C(=O)C[C@@H](C(=O)N(C)[C@@H](Cc2ccccc2)C(=O)N[C@@H](C)C(=O)N2CCCCC2)NC(=O)[C@H](C)N(C)C(=O)[C@H](CC(C)C)N(C)C1=O` [DP-285] ([Sar][NMeL]TF[NMeV]G[NMeA]L[NMeL][NMeA]D[NMeF]A-Piperidide; lactam N-11) were 16 ×10⁻⁶ cm/s and 69 µL/min/mg.
For `CC[C@H](C)[C@@H]1NC(=O)[C@H](C)N(C)C(=O)[C@H]([C@@H](C)O)NC(=O)[C@H](C(C)C)N(C)C(=O)[C@H](C)N(C)C(=O)[C@H](Cc2ccccc2)NC(=O)[C@H](C)NC(=O)C[C@@H](C(=O)N(C)[C@@H](Cc2ccccc2)C(=O)N[C@@H](C)C(=O)N2CCCCC2)NC(=O)[C@H](C)N(C)C(=O)[C@H](CC(C)C)N(C)C1=O` [DP-288] (AF[NMeA][NMeV]T[NMeA]I[NMeL][NMeA]D[NMeF]A-Piperidide; lactam N-10) the same measures were 18 ×10⁻⁶ cm/s and 80 µL/min/mg.
In the case of `CC[C@H](C)[C@@H]1NC(=O)[C@H](CC(C)C)N(C)C(=O)CN(C)C(=O)[C@H]([C@@H](C)O)NC(=O)[C@H](CC(C)C)N(C)C(=O)[C@H](Cc2ccccc2)N(C)C(=O)[C@H](C)N(C)C(=O)[C@@H](C)NC(=O)C[C@@H](C(=O)N(C)[C@@H](Cc2ccccc2)C(=O)N[C@@H](C)C(=O)N2CCCCC2)NC(=O)[C@H](C(C)C)N(C)C1=O` [DP-290] ([dA][NMeA][NMeF][NMeL]T[Sar][NMeL]I[NMeV]D[NMeF]A-Piperidide; lactam N-10), the Papp at 18 hours, 50 µM in data set [1] (setting [3]) was determined as 19 ×10⁻⁶ cm/s. Besides, the microsomal CLint at 1 uM in data set [2] (setting [4]) was 23 µL/min/mg.
`CC(C)C[C@H]1C(=O)N(C)[C@@H](C(C)C)C(=O)N[C@@H](Cc2ccccc2)C(=O)N[C@H](C(=O)N(C)[C@@H](Cc2ccccc2)C(=O)N[C@@H](C)C(=O)N2CCCCC2)CC(=O)N[C@H](C)C(=O)N[C@@H](C(C)C)C(=O)N(C)[C@@H](CC(C)C)C(=O)N[C@@H]([C@@H](C)O)C(=O)N(C)[C@@H](Cc2ccccc2)C(=O)NCC(=O)N1C` [DP-291] ([dA]V[NMeL]T[NMeF]G[NMeL][NMeV]FD[NMeF]A-Piperidide; lactam N-10) had a Papp at 18 hours, 50 µM in data set [1] (pH 6.5) of 14 ×10⁻⁶ cm/s. The microsomal CLint at 1 uM in data set [2] (human, pH 7.4, CL NADPH(+)) was 97 µL/min/mg.
For `CC[C@H](C)[C@@H]1NC(=O)[C@H](C)N(C)C(=O)[C@H](CC(C)C)N(C)C(=O)[C@H](Cc2ccccc2)NC(=O)[C@H]([C@@H](C)O)NC(=O)[C@H](C(C)C)N(C)C(=O)[C@H](C)N(C)C(=O)CN(C)C(=O)[C@@H](C(C)C)NC(=O)C[C@@H](C(=O)N(C)C(Cc2ccccc2)C(=O)N(C)[C@@H](Cc2ccccc2)C(=O)N[C@@H](C)C(=O)N2CCCCC2)NC1=O` (stereo partly drawn) [DP-293] ([dV][Sar][NMeA][NMeV]TF[NMeL][NMeA]ID[ξNMeF][NMeF]A-Piperidide; lactam N-10) the same measures were 45 ×10⁻⁶ cm/s and 29 µL/min/mg.
For `CC[C@H](C)[C@@H]1NC(=O)[C@@H](C(C)C)NC(=O)C[C@@H](C(=O)N(C)[C@@H](Cc2ccccc2)C(=O)N[C@@H](C)C(=O)N2CCCCC2)NC(=O)[C@H](Cc2ccccc2)N(C)C(=O)[C@H](C)NC(=O)[C@H](CC(C)C)N(C)C(=O)[C@H](C)N(C)C(=O)[C@H]([C@@H](C)O)NC(=O)[C@H](C)N(C)C(=O)[C@H](C(C)C)N(C)C1=O` [DP-294] ([dV]I[NMeV][NMeA]T[NMeA][NMeL]A[NMeF]D[NMeF]A-Piperidide; lactam N-10) the same measures were 17 ×10⁻⁶ cm/s and 35 µL/min/mg.
For `CC(C)C[C@H]1C(=O)N[C@H](C(=O)N(C)[C@@H](Cc2ccccc2)C(=O)N[C@@H](C)C(=O)N2CCCCC2)CC(=O)N(C)[C@@H](C)C(=O)N[C@@H](Cc2ccccc2)C(=O)N(C)[C@@H](C(C)C)C(=O)N(C)[C@@H](C)C(=O)N[C@@H]([C@@H](C)O)C(=O)N(C)[C@@H](C)C(=O)N(C)[C@@H](CC(C)C)C(=O)N[C@@H](C)C(=O)N1C` [DP-296] ([NMeA]F[NMeV][NMeA]T[NMeA][NMeL]A[NMeL]D[NMeF]A-Piperidide; lactam N-10) the same measures were 15 ×10⁻⁶ cm/s and 64 µL/min/mg.
`CC[C@H](C)[C@@H]1NC(=O)[C@H](C(C)C)N(C)C(=O)[C@H](CC(C)C)N(C)C(=O)[C@H](C)N(C)C(=O)[C@H]([C@@H](C)O)NC(=O)[C@H](Cc2ccccc2)N(C)C(=O)CCN(C)C(=O)C[C@@H](C(=O)N(C)[C@@H](Cc2ccccc2)C(=O)N(C)[C@@H](Cc2ccccc2)C(=O)N[C@@H](C)C(=O)N2CCCCC2)NC(=O)[C@H](C)N(C)C(=O)[C@H](CC(C)C)N(C)C1=O` [DP-297] ([NMeβAla][NMeF]T[NMeA][NMeL][NMeV]I[NMeL][NMeA]D[NMeF][NMeF]A-Piperidide; lactam N-10) registered a Papp at 18 hours, 50 µM in data set [1] (pH 6.5) of 19 ×10⁻⁶ cm/s. Also, in data set [2] (human, pH 7.4, CL NADPH(+)), the microsomal CLint at 1 uM was determined as 78 µL/min/mg.
For `CC(C)C[C@H]1C(=O)N[C@@H](Cc2ccccc2)C(=O)N(C)[C@@H](C(C)C)C(=O)N[C@@H]([C@@H](C)O)C(=O)N[C@H](C(=O)N(C)[C@@H](Cc2ccccc2)C(=O)N(C)[C@@H](Cc2ccccc2)C(=O)N[C@@H](C)C(=O)N2CCCCC2)CC(=O)N(C)CCC(=O)N[C@@H](C(C)C)C(=O)N(C)[C@@H](CC(C)C)C(=O)N(C)[C@@H](Cc2ccccc2)C(=O)NCC(=O)N1C` [DP-298] ([NMeβAla]V[NMeL][NMeF]G[NMeL]F[NMeV]TD[NMeF][NMeF]A-Piperidide; lactam N-10) the same measures were 7 ×10⁻⁶ cm/s and 39 µL/min/mg.
Taken in the same sequence, the figures for `CC[C@H](C)[C@@H]1NC(=O)[C@H](Cc2ccccc2)N(C)C(=O)[C@H](CC(C)C)N(C)C(=O)[C@H](Cc2ccccc2)N(C)C(=O)[C@H]([C@@H](C)O)NC(=O)CCN(C)C(=O)C[C@@H](C(=O)N(C)[C@@H](Cc2ccccc2)C(=O)N[C@@H](C)C(=O)N2CCCCC2)NC(=O)[C@H](CC(C)C)N(C)C(=O)[C@H](C)N(C)C(=O)[C@H](CC(C)C)N(C)C1=O` [DP-299] ([NMeβAla]T[NMeF][NMeL][NMeF]I[NMeL][NMeA][NMeL]D[NMeF]A-Piperidide; lactam N-10) were 5.3 ×10⁻⁶ cm/s and 56 µL/min/mg.
As for `CC[C@H](C)[C@@H]1NC(=O)[C@H](CC(C)C)N(C)C(=O)[C@H](C)N(C)C(=O)[C@H]([C@@H](C)O)NC(=O)[C@H](Cc2ccccc2)N(C)C(=O)[C@H](C)N(C)C(=O)[C@@H](C)N(C)C(=O)C[C@@H](C(=O)N(C)[C@@H](Cc2ccccc2)C(=O)N(C)[C@@H](Cc2ccccc2)C(=O)N[C@@H](C)C(=O)N2CCCCC2)NC(=O)[C@H](C(C)C)N(C)C(=O)[C@H](CC(C)C)N(C)C1=O` [DP-300] ([dNMeA][NMeA][NMeF]T[NMeA][NMeL]I[NMeL][NMeV]D[NMeF][NMeF]A-Piperidide; lactam N-10), the Papp at 18 hours, 50 µM in data set [1] (setting [3]) turned out to be 8.2 ×10⁻⁶ cm/s. The microsomal CLint at 1 uM in data set [2] (setting [4]) stood at 166 µL/min/mg.
Molecule `CC(C)C[C@H]1C(=O)N[C@@H]([C@@H](C)O)C(=O)N(C)[C@@H](Cc2ccccc2)C(=O)N(C)[C@@H](CC(C)C)C(=O)NCC(=O)N(C)[C@@H](C(C)C)C(=O)N[C@@H](Cc2ccccc2)C(=O)N[C@H](C(=O)N(C)[C@@H](Cc2ccccc2)C(=O)N[C@@H](C)C(=O)N2CCCCC2)CC(=O)N(C)[C@H](C)C(=O)N[C@@H](C(C)C)C(=O)N1C` [DP-301] ([dNMeA]V[NMeL]T[NMeF][NMeL]G[NMeV]FD[NMeF]A-Piperidide; lactam N-10) came in with a Papp at 18 hours, 50 µM in data set [1] (pH 6.5) of 15 ×10⁻⁶ cm/s. The microsomal CLint at 1 uM in data set [2] (human, pH 7.4, CL NADPH(+)) amounted to 184 µL/min/mg.
In the case of `CC[C@H](C)[C@H]1C(=O)N[C@H](C(=O)N(C)[C@@H](Cc2ccccc2)C(=O)N(C)[C@@H](Cc2ccccc2)C(=O)N[C@@H](C)C(=O)N2CCCCC2)CC(=O)N(C)CC(=O)N(C)[C@@H](C)C(=O)N[C@@H]([C@@H](C)O)C(=O)N(C)[C@@H](C)C(=O)N(C)[C@@H](CC(C)C)C(=O)N(C)[C@@H](Cc2ccccc2)C(=O)N[C@@H](C(C)C)C(=O)N(C)[C@@H](CC(C)C)C(=O)N1C` [DP-302] ([Sar][NMeA]T[NMeA][NMeL][NMeF]V[NMeL][NMeI]D[NMeF][NMeF]A-Piperidide; lactam N-10), in data set [1] (pH 6.5), the Papp at 18 hours, 50 µM amounted to 18 ×10⁻⁶ cm/s. The molecule also had a microsomal CLint at 1 uM in data set [2] (human, pH 7.4, CL NADPH(+)) of 102 µL/min/mg.
Taken in the same sequence, the figures for `CC(C)C[C@H]1C(=O)NCC(=O)N(C)[C@@H](Cc2ccccc2)C(=O)N(C)[C@@H](C(C)C)C(=O)N[C@@H]([C@@H](C)O)C(=O)N[C@H](C(=O)N(C)[C@@H](Cc2ccccc2)C(=O)N(C)[C@@H](Cc2ccccc2)C(=O)N[C@@H](C)C(=O)N2CCCCC2)CC(=O)N(C)CC(=O)N[C@@H](C(C)C)C(=O)N(C)[C@@H](CC(C)C)C(=O)N[C@@H](Cc2ccccc2)C(=O)N1C` [DP-303] ([Sar]V[NMeL]F[NMeL]G[NMeF][NMeV]TD[NMeF][NMeF]A-Piperidide; lactam N-10) were 1.2 ×10⁻⁶ cm/s and 27 µL/min/mg.
